Assay results reported in PubChem BioAssay AID1996.
Values after ≈ are worked out from the molar mass of the structure shown.

Settings: buffer; pH 7.4; 200.0 µM
`CCN1CCN(c2ccc(NC(=O)c3ccco3)cc2Cl)CC1` showed a solubility kinetic of 45.2 µg/mL (≈ 135 µM). With `Cc1ccc(C(=O)N2CCCCC2)cc1S(=O)(=O)N1CCCC1` the solubility kinetic was > 50.5 µg/mL. With `Cc1ccc(NC(=O)Cn2cnc3cc([N+](=O)[O-])ccc3c2=O)cc1` the solubility kinetic was 3.9 µg/mL (≈ 11.5 µM). Work on `COc1cc(NS(=O)(=O)c2cc(C(=O)NCCc3ccccn3)ccc2OC)cc(OC)c1` yielded a solubility kinetic of 66.4 µg/mL (≈ 141 µM). `O=C(COC(=O)COc1ccccc1)Nc1ccc(Br)cc1F` gave a solubility kinetic of 12.3 µg/mL (≈ 32.2 µM). In the case of `CCCC(=O)Nc1cc(S(=O)(=O)N2CCOCC2)ccc1N1CCCCC1`, the solubility kinetic was > 59.3 µg/mL. Compound `CNC(=O)c1ccccc1NC(=O)C1CC(=O)N(C(C)C)C1` (stereo not given) has a solubility kinetic of 44.7 µg/mL (≈ 147 µM). `COC(=O)CCC(=O)c1ccn(S(=O)(=O)c2ccccc2)c1` showed a solubility kinetic of 44.6 µg/mL (≈ 139 µM). For `Cc1ccccc1OCC(=O)N1CCCCCCC1`, the solubility kinetic was > 39.2 µg/mL. `N#Cc1ccccc1COC(=O)c1cccnc1N` showed a solubility kinetic of 10.5 µg/mL (≈ 41.5 µM). In the case of `O=C(O)c1cccc(S(=O)(=O)Nc2ccc(-c3ccccc3)cc2)c1`, the solubility kinetic was > 53 µg/mL. With `Cc1ccc(NC(=O)Cn2ccc(=O)[nH]c2=O)cc1` the solubility kinetic was > 38.9 µg/mL. With `COCCSc1nc(N)c2c3c(sc2n1)CN(C)CC3` the solubility kinetic was > 46.6 µg/mL. With `CCN(CC)CC(O)CCCCCCCCC(=O)OC.Cl` (stereo not given) the solubility kinetic was > 48.6 µg/mL. In the case of `Cc1cc(C)nc(Nc2nc3ccccc3o2)n1`, the solubility kinetic was > 36 µg/mL. For `O=c1cc(Cl)c2ccccc2n1-c1ccccc1`, the solubility kinetic was > 38.4 µg/mL. In the case of `O=C(NCc1cnn(-c2ccccc2)c1)C1CCC(=O)N(C2CC2)C1` (stereo not given), the solubility kinetic was > 50.8 µg/mL. `O=C1CN(C(=O)COC(=O)c2ccc([N+](=O)[O-])s2)c2ccccc2N1` showed a solubility kinetic of 9.3 µg/mL (≈ 25.7 µM). For `Clc1ccc(OCCNCCc2ccccc2)cc1.O=C(O)C(=O)O`, the solubility kinetic was > 54.9 µg/mL. With `Cl.Cn1cccc1CNCC(O)c1ccccc1` (stereo not given) the solubility kinetic was > 40 µg/mL. With `NC(=O)COC(=O)CNC(=O)c1sc2ccccc2c1Cl` the solubility kinetic was 44.8 µg/mL (≈ 137 µM). `Cc1ccc(-c2ocnc2C(=O)Nc2nc(C)cs2)cc1` showed a solubility kinetic of 1.1 µg/mL (≈ 3.67 µM). `CCOc1ccccc1NC(=O)NC1CCCc2ccccc21` (stereo not given) gave a solubility kinetic of 0.5 µg/mL (≈ 1.61 µM). For `O=C(c1ccccc1)N1CCCC(C(=O)N2CCCCC2)C1` (stereo not given), the solubility kinetic was > 45.1 µg/mL. Work on `Cc1cc(NC(=O)CN2C(=O)NC(C)(c3ccccc3Cl)C2=O)no1` (stereo not given) yielded a solubility kinetic of 28 µg/mL (≈ 77.2 µM). With `COc1cc(SC)ccc1C(=O)OCC(=O)N1CC(=O)Nc2ccccc21` the solubility kinetic was 17.6 µg/mL (≈ 45.5 µM). With `CC(c1ccccc1)n1c(S(=O)(=O)O)nc2ccccc21` (stereo not given) the solubility kinetic was 43.7 µg/mL (≈ 145 µM). `Cc1ccccc1OCc1nc2ccccc2n1C` showed a solubility kinetic of 3.1 µg/mL (≈ 12.3 µM). `COc1cc([N+](=O)[O-])cc2sc(NC(C)=O)nc12` gave a solubility kinetic of 2.7 µg/mL (≈ 10.1 µM). `Cc1noc(-c2ccccc2)c1NC(=O)Nc1ccc(Cl)cc1` showed a solubility kinetic of 3.1 µg/mL (≈ 9.46 µM). For `Cl.O=C(NC(=S)N1CCN(c2ccccc2)CC1)c1ccco1`, the solubility kinetic was > 52.8 µg/mL. `Clc1ccc(CN2CCSCC2)cc1Cl` gave a solubility kinetic of 2.6 µg/mL (≈ 9.92 µM). For `Cc1cc(=O)n2c(n1)NC(=NCc1ccccc1)NC2c1ccccc1` (stereo not given), the solubility kinetic was > 51.8 µg/mL. In the case of `O=C(NC1CC(=O)N(c2ccccc2)C1)C1CC1` (stereo not given), the solubility kinetic was > 36.6 µg/mL. In the case of `Cc1cc(NC(=O)C(C)Oc2ccc(Cl)cc2Cl)no1` (stereo not given), the solubility kinetic was 9.1 µg/mL (≈ 28.9 µM). Work on `O=C(Nc1nc2ccccc2[nH]1)c1cc(F)cc(F)c1` yielded a solubility kinetic of 0.7 µg/mL (≈ 2.56 µM). For `Cc1c(NS(C)(=O)=O)cccc1-c1nc2cccnc2s1`, the solubility kinetic was 42.9 µg/mL (≈ 134 µM). With `Cc1cccc(Nc2cc(=O)n(C)c(=O)[nH]2)c1` the solubility kinetic was > 34.7 µg/mL. For `CC(=O)c1ccc(OC(=O)CN2C(=O)c3ccccc3C2=O)cc1`, the solubility kinetic was > 48.5 µg/mL. For `CSc1ccc(/C=C/C(=O)OCC(=O)N2CCCCCC2)cc1`, the solubility kinetic was 3.8 µg/mL (≈ 11.4 µM). For `COP(=O)(OC)C(Nc1ccc(Cl)cc1)c1ccccc1` (stereo not given), the solubility kinetic was > 48.9 µg/mL. In the case of `COc1ccc(S(=O)(=O)NCc2ccccn2)cc1Br`, the solubility kinetic was > 53.6 µg/mL. For `O=C(Cc1cccc(C(F)(F)F)c1)N1CCCC1`, the solubility kinetic was > 38.6 µg/mL. Compound `COCCN(C(=S)Nc1cccc(C)c1)C(C)c1cccnc1` (stereo not given) has a solubility kinetic of 48.2 µg/mL (≈ 146 µM). `CCc1ccc(CNc2ccc3c(c2)ncn3CC)cc1` showed a solubility kinetic of 37.3 µg/mL (≈ 134 µM). `CCc1ccc(NC(=O)c2[nH]c(C)c(C(C)=O)c2C)cc1` gave a solubility kinetic of 5.1 µg/mL (≈ 17.9 µM). With `COc1cc(C(=O)O)ccc1OCc1ccncc1` the solubility kinetic was > 38.9 µg/mL. With `CN(Cc1cccs1)C(=O)COc1cccc2c1OC(C)(C)C2` the solubility kinetic was > 49.7 µg/mL. For `Cc1cc(Br)ccc1NC(=O)c1ccco1`, the solubility kinetic was > 42 µg/mL. With `Cc1ccsc1C(=O)N(C)C1CCS(=O)(=O)C1` (stereo not given) the solubility kinetic was > 41 µg/mL. For `O=C(c1ccccc1)C1CCN(C(=O)c2ccc(Cl)cc2)CC1`, the solubility kinetic was > 49.2 µg/mL. In the case of `CC(=O)N(C)c1ccc(N=C2C(=O)Nc3ccccc32)cc1`, the solubility kinetic was > 44 µg/mL. Work on `COc1ccc(OCC(=O)N2CCc3ccccc3C2)cc1` yielded a solubility kinetic of 29.8 µg/mL (≈ 100 µM). For `CCOc1ccccc1C(=O)Nc1cccc2ccccc12`, the solubility kinetic was < 0.6 µg/mL. `COC(=O)c1ccc(CO/N=C/c2ccccc2OC)cc1` gave a solubility kinetic of 2.6 µg/mL (≈ 8.69 µM). For `COc1ccc(C(=O)NC(Cc2c[nH]c3ccccc23)C(=O)O)cc1` (stereo not given), the solubility kinetic was > 50.8 µg/mL. `O=C(CCNC(=O)c1ccccc1Cl)Nc1nc2ccccc2[nH]1` gave a solubility kinetic of 4.9 µg/mL (≈ 14.3 µM). With `CCN(CC(=O)Nc1ccccc1OC)C(=O)CC1CCCC1` the solubility kinetic was > 47.8 µg/mL. With `Cc1ccc(NC(=S)NCc2ccc(Cl)cc2)c(C)c1` the solubility kinetic was 2.3 µg/mL (≈ 7.54 µM). Work on `CCOC(=O)N1c2ccccc2C=CC1OCC` (stereo not given) yielded a solubility kinetic of 8 µg/mL (≈ 32.4 µM).
